Results published in patent US7998965B2, “Glutamate aggrecanase inhibitors” (Wyeth LLC, priority 2005, dated 2011).
Where two headings read alike, the source gives them in different places.

Tests used:
[1] = target: T1, purified recombinant human Aggrecanase-1 (rAgg1) (Homo sapiens, UniProt O75173); test: In vitro fluorescence screen for Aggrecanase-1 inhibitors; type: biochemical; conditions: for IC50: read-out: Agg1 IC50
T1 sequence (O75173 213-837): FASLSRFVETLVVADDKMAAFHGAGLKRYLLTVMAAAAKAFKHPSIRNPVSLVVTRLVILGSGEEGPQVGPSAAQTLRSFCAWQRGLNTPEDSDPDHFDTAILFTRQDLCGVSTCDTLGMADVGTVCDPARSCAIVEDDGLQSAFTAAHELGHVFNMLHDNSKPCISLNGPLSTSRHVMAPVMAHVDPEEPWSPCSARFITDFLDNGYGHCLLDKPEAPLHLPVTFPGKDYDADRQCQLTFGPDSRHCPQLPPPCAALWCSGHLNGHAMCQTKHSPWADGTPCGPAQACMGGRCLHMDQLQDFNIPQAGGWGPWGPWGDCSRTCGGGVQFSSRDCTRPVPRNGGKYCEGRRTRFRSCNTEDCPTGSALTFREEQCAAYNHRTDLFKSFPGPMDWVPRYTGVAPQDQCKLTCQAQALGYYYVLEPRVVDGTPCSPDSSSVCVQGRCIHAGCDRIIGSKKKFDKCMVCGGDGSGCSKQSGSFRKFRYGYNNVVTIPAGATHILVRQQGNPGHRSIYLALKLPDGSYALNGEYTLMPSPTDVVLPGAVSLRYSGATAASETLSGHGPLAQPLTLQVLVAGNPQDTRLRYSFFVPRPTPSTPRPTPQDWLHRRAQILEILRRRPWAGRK

[2] = target: T2, purified recombinant human Aggrecanase-2 (Ag2t-Phe628-Strep) (Homo sapiens, UniProt Q9UNA0); test: In vitro fluorescence screen for Aggrecanase-2 inhibitors; type: biochemical; conditions: read-out: Agg 2 IC50
T2 construct: the form used is denoted as Ag2t-Phe628-Strep (MW=41,737)
T2 sequence (Q9UNA0 262-628): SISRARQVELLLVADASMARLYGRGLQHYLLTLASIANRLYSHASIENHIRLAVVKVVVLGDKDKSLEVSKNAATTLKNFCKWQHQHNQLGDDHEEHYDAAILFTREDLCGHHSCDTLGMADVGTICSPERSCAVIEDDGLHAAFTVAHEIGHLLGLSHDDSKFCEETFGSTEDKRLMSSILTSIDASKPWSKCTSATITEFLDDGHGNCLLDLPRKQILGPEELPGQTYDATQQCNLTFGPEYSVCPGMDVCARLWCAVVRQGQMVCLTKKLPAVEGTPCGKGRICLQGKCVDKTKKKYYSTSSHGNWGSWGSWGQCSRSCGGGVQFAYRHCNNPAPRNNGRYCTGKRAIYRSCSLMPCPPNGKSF

[3] = target: T3, recombinant human catalytic domain of MMP-14 (Homo sapiens, UniProt P50281); test: In vitro fluorescence assay of MMP-14 activity; type: biochemical; conditions: Table 1; for MMP-14: unit not given; for IC50: unit inferred
T3 construct: 177 amino acids corresponding to Tyr89-Gly265 of mature human enzyme; purchased Chemicon International, Inc. CC1041

[4] = target: T4, recombinant human MMP-2 (Homo sapiens, UniProt P08253); test: In vitro fluorescence assay of MMP-2 activity
T4 sequence (P08253 110-660): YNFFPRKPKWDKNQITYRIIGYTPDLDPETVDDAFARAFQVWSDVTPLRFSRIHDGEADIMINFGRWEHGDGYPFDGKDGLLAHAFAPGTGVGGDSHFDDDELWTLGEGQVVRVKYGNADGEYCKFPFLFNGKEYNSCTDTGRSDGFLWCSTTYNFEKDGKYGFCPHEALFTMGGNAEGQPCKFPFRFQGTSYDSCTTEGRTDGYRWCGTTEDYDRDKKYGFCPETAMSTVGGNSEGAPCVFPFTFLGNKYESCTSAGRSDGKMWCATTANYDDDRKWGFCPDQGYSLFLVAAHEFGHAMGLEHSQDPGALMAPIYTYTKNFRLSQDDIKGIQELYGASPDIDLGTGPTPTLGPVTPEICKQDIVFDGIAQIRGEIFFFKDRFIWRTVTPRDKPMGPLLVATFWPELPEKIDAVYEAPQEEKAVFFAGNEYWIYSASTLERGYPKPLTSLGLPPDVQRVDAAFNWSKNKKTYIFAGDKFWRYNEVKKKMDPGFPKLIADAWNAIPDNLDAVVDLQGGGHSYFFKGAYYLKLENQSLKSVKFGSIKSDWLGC

[5] = target: T5, MMP-1 (Homo sapiens, UniProt P03956); test: MMP-1 of Table 1; type: biochemical; conditions: for MMP-1: unit not given; for IC50: unit inferred
T5 sequence (P03956 100-469): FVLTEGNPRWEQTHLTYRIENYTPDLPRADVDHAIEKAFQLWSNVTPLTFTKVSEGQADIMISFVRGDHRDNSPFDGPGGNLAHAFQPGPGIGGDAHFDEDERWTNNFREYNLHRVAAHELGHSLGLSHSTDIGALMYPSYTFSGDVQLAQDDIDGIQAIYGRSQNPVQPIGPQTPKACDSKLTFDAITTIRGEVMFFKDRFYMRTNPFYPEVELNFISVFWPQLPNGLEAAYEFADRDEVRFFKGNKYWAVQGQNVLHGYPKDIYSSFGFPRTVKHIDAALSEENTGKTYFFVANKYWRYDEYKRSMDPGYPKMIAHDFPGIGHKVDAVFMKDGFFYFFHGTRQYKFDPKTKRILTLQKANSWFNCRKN

[6] = target: T6, recombinant human catalytic domain of MMP-13 (Homo sapiens, UniProt P45452); test: In vitro fluorescence assay of MMP-13 activity; type: biochemical
T6 construct: catalytic domain of MMP-13 (165 amino acids, residues 104-268, 19 kDa)

[7] = tested on: bovine articular cartilage treated with Interleukin 1 alpha (IL-1α); test: Bovine articular cartilage explant cultures: inhibition of degradation of proteoglycan; type: cell-based; conditions: inhibitory effect expressed as percentage, concentration not printed
From the text: This in vitro procedure was used to evaluate the effect and relative potencies of small molecule compounds to inhibit the degradation of proteoglycan in articular cartilage treated with Interleukin 1 alpha (IL-1α). Treatment of articular cartilage with IL 1α induces expression of a cascade of enzymes that initiates cartilage matrix degradation. This assay was utilized to select small molecule compounds that inhibit the enzyme activity and protects cartilage matrix degradation.
Articular cartilage: bovine metacarpal joints were disinfected with 10% Wescodyne followed by 70% ethanol. 6 mm articular cartilage discs were prepared and rinsed once in PBS and medium, respectively. The discs were cultured in a stirring flask with serum-free medium for 5 days for equilibrium with one medium change. Small molecule compounds: stock solutions of test small molecule compounds (usually at 5 mg/ml) were prepared in DMSO. Working solutions were diluted with DMSO and generally ranged from 0.1 μg/ml to 10 ug/ml. The DMSO stocks were stored at […]. Articular cartilage explant culture medium: DMEM, 2 mM glutamax, 100 U/ml of antibiotic and antimycotic, 50 μg/ml ascorbate and 10 mM Hepes (pH-7.0). Proteoglycan content-Dimethyl methylene blue (DMMB) solution: […] DMMB, 10 ml 100% ethanol, 29.5 ml of 1M NaOH, 3.5 ml of 98% formic acid and water to 1 L. Chondroitin sulphate sodium salt: 1.56-200 ug/ml serial dilutions.
For the explant culture, cartilage discs were cultured in serum-free medium for 48 h or more. Discs were weighed and transferred to a 96-well plate, 1 disc per-well. 0.2 ml of medium containing 5 ng/ml of IL-1 and different concentrations of compounds were added to each well, with 3 wells allocated for each treatment. The medium was collected at days 1, 2, & 3 and replaced accordingly.
For the DMMB assay, conditioned medium (CM) samples were diluted with medium. 10 ul of each standard or diluted sample was added in duplicate into a 96-well-plate and 200 μl of DMMB solution was added into each well. Absorbance at 520 nm was measured for each well. Proteoglycan contents in CM were calculated daily.
The proteoglycan contents are expressed as ug per mg of cartilage. The inhibitory effect of the compounds is expressed as percentage. (See, Tortorella, M. D. et al., Science 1999, 284, 1664-1666).

[8] = Table 1, first of two columns headed bovine
[9] = Table 1, second of two columns headed bovine
[10] = Table 2, nM printed in one cell only

Row | SMILES | IC50 ([1]; Table 1) [nM] | IC50 ([2]; Table 1) [nM] | IC50 ([6]; Table 1, unit inferred) [nM] | IC50 ([1]; Table 2) [nM] | IC50 ([2]; Table 2) [nM] | IC50 [6, 10] [nM] | also measured
1 | CC(C)(Cc1ccc(F)cc1)NC(=O)C(CCC(=O)O)NC(=O)c1ccc(-c2ccccc2)cc1 (racemic) [Example 8GGGG, N^2-(biphenyl-4-ylcarbonyl)-N^1-[2-(4-fluorophenyl)-1,1-dimethylethyl]-α-glutamine] | 30 | 160 | > 50000 |  |  |  | MMP-14 [3]: no inh; IC50 [4]: 18600 nM; MMP-1 [5]: no inh
2 | CCC(C)NC(=O)[C@H](CCC(=O)O)NC(=O)c1ccc(-c2ccccc2)cc1 (stereo partly drawn) [Example 8BBB, N^2-(1,1′-biphenyl-4-ylcarbonyl)-N^1-(sec-butyl)-L-α-glutamine] | 32 | 700 | > 50000 |  |  |  | Ki ([1]; Table 1, enzyme not given, column follows Agg1 IC50, read-out: Ki): 130 nM; bovine [7, 8]: 35%; bovine [7, 9]: 0%; MMP-14 [3]: no inh; IC50 [5]: > 200000 nM
3 | O=C(O)CC[C@H](NC(=O)c1ccc(-c2ccccc2)cc1)C(=O)NCc1ccc(I)cc1 [Example 8LL, N^2-(1,1′-biphenyl-4-ylcarbonyl)-N^1-(4-iodobenzyl)-L-α-glutamine] | 55 | 990 | 24000 |  |  |  | bovine [7, 8]: 40%; bovine [7, 9]: 0%; IC50 [4]: 50000 nM
4 | CC(C)(C)NC(=O)[C@H](CCC(=O)O)NC(=O)c1ccc(-c2ccccc2)cc1 [Example 8SSS, N^2-(biphenyl-4-ylcarbonyl)-N^1-(tert-butyl)-L-α-glutamine] | 64 | 470 | > 50000 |  |  |  | IC50 [4]: 10300 nM
5 | CC(C)(Cc1ccc(F)cc1)NC(=O)[C@H](CCC(=O)O)NC(=O)c1ccc2c(c1)Cc1ccccc1-2 [Example 8ZZZZZ, N^2-(9H-fluoren-2-ylcarbonyl)-N^1-[2-(4-fluorophenyl)-1,1-dimethylethyl]-L-α-glutamine] |  |  |  | < 30 | 63 | > 100000 | 
6 | O=C(O)CC[C@H](NC(=O)c1ccc(-c2ccccc2)cc1)C(=O)NCc1cccc(-c2ccccn2)c1 [Example 10Q, N^2-(biphenyl-4-ylcarbonyl)-N^1-(3-pyridin-2-ylbenzyl)-L-α-glutamine] | 98 | 3000 | ~50000 |  |  |  | IC50 [3]: > 50000 nM; MMP-1 [5]: no inh
7 | COc1cccc(-c2ccc(C(=O)N[C@@H](CCC(=O)O)C(=O)NC(C)(C)Cc3ccccc3)cc2)c1 [Example 17I, N-(1,1-dimethyl-2-phenylethyl)-N^2-[(3′-methoxybiphenyl-4-yl)carbonyl]-L-α-glutamine] |  |  |  | < 30 | 217 | ~100000 | 
8 | COc1cc(CNC(=O)C(CCC(=O)O)NC(=O)c2ccc(-c3ccc4c(c3)OCO4)cc2)cc(OC)c1OC (stereo not shown) [Example 17N, 4-(4-Benzo[1,3]dioxol-5-yl-benzoylamino)-4-(3,4,5-trimethoxy-benzylcarbamoyl)-butyric acid] |  |  |  | 40 | 42 | 11200 | 
9 | COc1cc(CNC(=O)[C@H](CCC(=O)O)NC(=O)c2ccc(-c3ccc(C)c(F)c3)cc2)cc(OC)c1OC [Example 17R, N^2-[(3′-fluoro-4′-methylbiphenyl-4-yl)carbonyl]-N-(3,4,5-trimethoxybenzyl)-L-α-glutamine] |  |  |  | 73 | 142 | 6000 | 
10 | COc1cc(COc2ccc(-c3ccc(C(=O)N[C@@H](CCC(=O)O)C(=O)NCc4cc(OC)c(OC)c(OC)c4)cc3)cc2)cc(OC)c1 [Example 18, N^2-({4′-[(3,5-dimethoxybenzyl)oxy]biphenyl-4-yl}carbonyl)-N-(3,4,5-trimethoxybenzyl)-L-α-glutamine] |  |  |  | 49 | 50 | ~1600 | 
11 | COc1cccc(CCNC(=O)[C@H](CCC(=O)NO)NC(=O)c2ccc(-c3ccccc3)cc2)c1 [Example 33C, N^2-(1,1′-biphenyl-4-ylcarbonyl)-N^5-hydroxy-N^1-[2-(3-methoxyphenyl)ethyl]-L-α-glutamamide] | < 10 | 25 | 29 |  |  |  | IC50 [3]: 110 nM; IC50 [5]: 1500 nM
